This is an account of results in patent US10759793B2, “2-(pyrazolopyridin-3-yl)pyrimidine derivatives as JAK inhibitors” (ALMIRALL, S.A., priority 2015, dated 2020).

For orientation: IC50 means the concentration at which inhibition is half-maximal.

Common to all, as to assay type: biochemical
The target in one assay is JAK2 (Homo sapiens (Human), UniProt O60674). As to the kind of experiment: In vitro JAK kinase assay (TR-FRET), JAK2. As to conditions: catalytic domain aa 826-1132, GST-fusion; ATP 0.2 μM; peptide 20 nM; 30 minutes at room temperature. Summed up: (§1)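 Each human JAK enzyme assayed on biotinylated poly(GT) peptide substrate, reaction 30 min at room temperature. Phosphorylation detected by TR-FRET after a 3 h detection incubation.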
In general terms: TR-FRET usually uses a lanthanide donor and a delayed reading to cut background.

Another assay concerns the target JAK3 (Homo sapiens (Human), UniProt P52333). As to the kind of experiment: In vitro JAK kinase assay (TR-FRET), JAK3. As to conditions: catalytic domain aa 795-1124, GST-fusion; ATP 0.6 μM; peptide 140 nM; 30 minutes at room temperature. Put shortly:
as §1

In a further assay the target is JAK1 (Homo sapiens (Human), UniProt P23458). As to the kind of experiment: In vitro JAK kinase assay (TR-FRET), JAK1. Particulars: catalytic domain aa 850-1154, GST-fusion; ATP 3 μM; peptide 60 nM; 30 minutes at room temperature. Summed up: as §1
Chain of JAK1 (P23458 850-1154): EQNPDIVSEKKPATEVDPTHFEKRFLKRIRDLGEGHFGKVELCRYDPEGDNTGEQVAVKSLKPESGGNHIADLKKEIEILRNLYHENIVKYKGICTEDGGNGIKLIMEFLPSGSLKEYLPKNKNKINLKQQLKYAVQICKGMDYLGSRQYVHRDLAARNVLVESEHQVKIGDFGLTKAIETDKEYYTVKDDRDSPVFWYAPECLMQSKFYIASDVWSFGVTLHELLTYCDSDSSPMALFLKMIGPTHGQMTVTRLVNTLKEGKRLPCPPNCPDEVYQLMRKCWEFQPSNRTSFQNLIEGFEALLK

Chain of JAK3 (P52333 795-1124): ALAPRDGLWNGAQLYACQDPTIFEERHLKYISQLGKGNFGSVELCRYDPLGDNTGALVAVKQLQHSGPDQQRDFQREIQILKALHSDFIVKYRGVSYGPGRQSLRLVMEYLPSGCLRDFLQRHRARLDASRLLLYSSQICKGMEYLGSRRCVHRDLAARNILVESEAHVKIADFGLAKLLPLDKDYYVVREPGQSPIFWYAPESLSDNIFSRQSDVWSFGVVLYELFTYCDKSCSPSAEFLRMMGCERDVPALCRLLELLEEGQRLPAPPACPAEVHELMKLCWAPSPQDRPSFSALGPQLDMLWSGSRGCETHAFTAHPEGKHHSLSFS
Chain of JAK2 (O60674 826-1132): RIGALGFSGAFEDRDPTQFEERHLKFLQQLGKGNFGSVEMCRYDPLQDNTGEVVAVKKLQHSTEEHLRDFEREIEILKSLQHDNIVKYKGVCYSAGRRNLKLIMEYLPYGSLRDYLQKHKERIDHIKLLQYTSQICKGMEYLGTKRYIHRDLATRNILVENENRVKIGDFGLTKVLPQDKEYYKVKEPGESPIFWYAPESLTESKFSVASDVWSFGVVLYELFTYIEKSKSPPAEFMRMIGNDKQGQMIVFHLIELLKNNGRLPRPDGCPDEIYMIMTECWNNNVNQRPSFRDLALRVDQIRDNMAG

As to `N#CCC(=O)N1CCC[C@@H](Oc2nc(-c3cnn4ccccc34)nc(-c3ccnc(CO)c3)c2F)C1` [Example 73, 3-[(3R)-3-({5-Fluoro-6-[2-(hydroxymethyl)pyridin-4-yl]-2-pyrazolo[1,5-a]pyridin-3-ylpyrimidin-4-yl}oxy)piperidin-1-yl]-3-oxopropanenitrile], the IC50 at JAK2 was 2 nM; at JAK3 it was 27 nM; on JAK1 it was 13 nM.
In the same order, the values of `O=C(CO)N1CCC[C@@H](Oc2nc(-c3cnn4ccccc34)nc(-c3ccnc(CO)c3)c2F)C1` [Example 74, 2-[(3R)-3-({5-Fluoro-6-[2-(hydroxymethyl)pyridin-4-yl]-2-pyrazolo[1,5-a]pyridin-3-ylpyrimidin-4-yl}oxy)piperidin-1-yl]-2-oxoethanol] are 1 nM, 4 nM and 3 nM.
In the same order, the values of `O=C(CO)N1CCC[C@@H](Oc2nc(-c3cnn4ccccc34)nc(N3CCC(O)CC3)c2F)C1` [Example 75, 1-(5-Fluoro-6-{[(3R)-1-glycoloylpiperidin-3-yl]oxy}-2-pyrazolo[1,5-a]pyridin-3-ylpyrimidin-4-yl)piperidin-4-ol] are 4 nM, 26 nM and 29 nM.
In the same order, the values of `Cc1cc(-c2nc(-c3cnn4ccccc34)nc(N(C)[C@@H]3CCCN(C(=O)CO)C3)c2F)ccn1` [Example 77, 2-{(3R)-3-[[5-Fluoro-6-(2-methylpyridin-4-yl)-2-pyrazolo[1,5-a]pyridin-3-ylpyrimidin-4-yl](methyl)amino]piperidin-1-yl}-2-oxoethanol] are 2 nM, 23 nM and 3 nM.
In the case of `N#CCC(=O)N1CCC[C@@H](Nc2nc(-c3cnn4ccccc34)nc(-c3ccnc(CO)c3)c2F)C1` [Example 78, 3-[(3R)-3-({5-Fluoro-6-[2-(hydroxymethyl)pyridin-4-yl]-2-pyrazolo[1,5-a]pyridin-3-ylpyrimidin-4-yl}amino)piperidin-1-yl]-3-oxopropanenitrile], the results for the IC50 against JAK2, against JAK3 and against JAK1 were 0.5 nM, 1 nM and 2 nM, respectively.
Taken in the same sequence, the figures for `O=C(CO)N1CCC[C@@H](Nc2nc(-c3cnn4ccccc34)nc(-c3ccncc3)c2F)C1` [Example 80, 2-{(3R)-3-[(5-Fluoro-2-pyrazolo[1,5-a]pyridin-3-yl-6-pyridin-4-ylpyrimidin-4-yl)amino]piperidin-1-yl}-2-oxoethanol] were 1 nM, 4 nM and 2 nM.
`CN(C)c1ccc(-c2nc(-c3cnn4ccccc34)nc(N[C@@H]3CCCN(C(=O)CO)C3)c2F)cn1` [Example 81, 2-[(3R)-3-({6-[6-(Dimethylamino)pyridin-3-yl]-5-fluoro-2-pyrazolo[1,5-a]pyridin-3-ylpyrimidin-4-yl}amino)piperidin-1-yl]-2-oxoethanol]: the IC50 came out at 1 nM against JAK2, 2 nM against JAK3 and 3 nM against JAK1.
In the same order, the values of `Cc1ncc(-c2nc(-c3cnn4ccccc34)nc(N[C@@H]3CCCN(C(=O)CO)C3)c2F)cn1` [Example 82, 2-{(3R)-3-[(5-Fluoro-2′-methyl-2-pyrazolo[1,5-a]pyridin-3-yl-4,5′-bipyrimidin-6-yl)amino]piperidin-1-yl}-2-oxoethanol] are 2 nM, 8 nM and 9 nM.
Regarding `N#CCC(=O)N1CCC[C@@H](Nc2nc(-c3cnn4ccccc34)nc(-c3ccc(CO)nc3)c2F)C1` [Example 85, 3-[(3R)-3-({5-Fluoro-6-[6-(hydroxymethyl)pyridin-3-yl]-2-pyrazolo[1,5-a]pyridin-3-ylpyrimidin-4-yl}amino)piperidin-1-yl]-3-oxopropanenitrile], the IC50 turned out to be 1 nM against JAK2, 4 nM on JAK3 and 1 nM at JAK1.
With `Cc1cc(-c2nc(-c3cnn4ccccc34)nc(N[C@@H]3CCCN(C(=O)CO)C3)c2F)cc(C)n1` [Example 86, 2-((3R)-3-{[6-(2,6-Dimethylpyridin-4-yl)-5-fluoro-2-pyrazolo[1,5-a]pyridin-3-ylpyrimidin-4-yl]amino}piperidin-1-yl)-2-oxoethanol], the figures for the IC50 on JAK2, on JAK3 and against JAK1 were 3 nM, 1 nM and 1 nM, respectively.
`Cc1cc(-c2nc(-c3cnn4ccccc34)nc(N[C@@H]3CCCN(C(=O)CC#N)C3)c2F)cc(C)n1` [Example 87, 3-((3R)-3-{[6-(2,6-Dimethylpyridin-4-yl)-5-fluoro-2-pyrazolo[1,5-a]pyridin-3-ylpyrimidin-4-yl]amino}piperidin-1-yl)-3-oxopropanenitrile]: the IC50 at JAK2 came out at 1 nM; against JAK3, 3 nM; against JAK1, 10 nM.
On to `O=C(CO)N1CCC[C@@H](Nc2nc(-c3cnn4ccccc34)nc(-c3cncc(CO)c3)c2F)C1` [Example 88, 2-[(3R)-3-({5-Fluoro-6-[5-(hydroxymethyl)pyridin-3-yl]-2-pyrazolo[1,5-a]pyridin-3-ylpyrimidin-4-yl}amino)piperidin-1-yl]-2-oxoethanol], for which the IC50 at JAK2 was 1 nM; against JAK3 it was 4 nM; against JAK1, 14 nM.
In the same order, the values of `N#CCC(=O)N1CCC[C@@H](Nc2nc(-c3cnn4ccccc34)nc(-c3cncc(CO)c3)c2F)C1` [Example 89, 3-[(3R)-3-({5-Fluoro-6-[5-(hydroxymethyl)pyridin-3-yl]-2-pyrazolo[1,5-a]pyridin-3-ylpyrimidin-4-yl}amino)piperidin-1-yl]-3-oxopropanenitrile] are 1 nM, 3 nM and 5 nM.
In the same order, the values of `C[C@H](O)COc1nc(-c2cnn3ccccc23)nc(O[C@@H]2CCCN(C(=O)CO)C2)c1F` [Example 90, (2S)-1-[(5-Fluoro-6-{[(3R)-1-glycoloylpiperidin-3-yl]oxy}-2-pyrazolo[1,5-a]pyridin-3-ylpyrimidin-4-yl)oxy]propan-2-ol] are 1 nM, 4 nM and 14 nM.
In the same order, the values of `COC[C@@H](C)Oc1nc(-c2cnn3ccccc23)nc(N[C@@H]2CCCN(c3cnc(C#N)cn3)C2)c1F` [Example 91, 5-[(3R)-3-({5-Fluoro-6-[(1R)-2-methoxy-1-methylethoxy]-2-pyrazolo[1,5-a]pyridin-3-ylpyrimidin-4-yl}amino)piperidin-1-yl]pyrazine-2-carbonitrile] are 2 nM, 5 nM and 114 nM.
On to `CC(C)OC(=O)c1nc(-c2cnn3ccccc23)nc(N[C@@H]2CCCN(C(=O)CO)C2)c1F` [Example 92, Isopropyl 5-fluoro-6-{[(3R)-1-glycoloylpiperidin-3-yl]amino}-2-pyrazolo[1,5-a]pyridin-3-ylpyrimidine-4-carboxylate], for which the IC50 against JAK2 came out at 1 nM; on JAK3 it was 4 nM; at JAK1, 12 nM.
Taken in the same sequence, the figures for `COc1nc(-c2cnn3ccccc23)nc(N[C@@H]2CCCN(C(=O)CO)C2)c1C` [Example 93, 2-{(3R)-3-[(6-Methoxy-5-methyl-2-pyrazolo[1,5-a]pyridin-3-ylpyrimidin-4-yl)amino]piperidin-1-yl}-2-oxoethanol] were 3 nM, 6 nM and 23 nM.
In the same order, the values of `COc1cc(N[C@@H]2CCCN(C(=O)CO)C2)nc(-c2cnn3ccccc23)n1` [Example 94, 2-{(3R)-3-[(6-Methoxy-2-pyrazolo[1,5-a]pyridin-3-ylpyrimidin-4-yl)amino]piperidin-1-yl}-2-oxoethanol] are 1 nM, 7 nM and 7 nM.
In the same order, the values of `COCCOc1cc(N[C@@H]2CCCN(C(=O)CO)C2)nc(-c2cnn3ccccc23)n1` [Example 96, 2-((3R)-3-{[6-(2-Methoxyethoxy)-2-pyrazolo[1,5-a]pyridin-3-ylpyrimidin-4-yl]amino}piperidin-1-yl)-2-oxoethanol] are 1 nM, 2 nM and 6 nM.
On to `COCCOc1cc(N[C@@H]2CCCN(C(=O)CC#N)C2)nc(-c2cnn3ccccc23)n1` [Example 97, 3-((3R)-3-{[6-(2-Methoxyethoxy)-2-pyrazolo[1,5-a]pyridin-3-ylpyrimidin-4-yl]amino}piperidin-1-yl)-3-oxopropanenitrile], for which the IC50 against JAK2 was 1 nM; at JAK3, 1 nM; on JAK1, 2 nM.
With `Cc1ccc(-c2cc(N[C@@H]3CCCN(C(=O)CO)C3)nc(-c3cnn4ccccc34)n2)cn1` [Example 99, 2-((3R)-3-{[6-(6-Methylpyridin-3-yl)-2-pyrazolo[1,5-a]pyridin-3-ylpyrimidin-4-yl]amino}piperidin-1-yl)-2-oxoethanol], the IC50 came out at 9 nM on JAK2, 7 nM against JAK3 and 2 nM against JAK1.
Taken in the same sequence, the figures for `Cc1ccc(-c2cc(N[C@@H]3CCCN(C(=O)CC#N)C3)nc(-c3cnn4ccccc34)n2)cn1` [Example 100, 3-((3R)-3-{[6-(6-Methylpyridin-3-yl)-2-pyrazolo[1,5-a]pyridin-3-ylpyrimidin-4-yl]amino}piperidin-1-yl)-3-oxopropanenitrile] were 2 nM, 2 nM and 0.5 nM.
Consider `Cc1cc(-c2cc(N[C@@H]3CCCN(C(=O)CO)C3)nc(-c3cnn4ccccc34)n2)cc(C)n1` [Example 101, 2-((3R)-3-{[6-(2,6-Dimethylpyridin-4-yl)-2-pyrazolo[1,5-a]pyridin-3-ylpyrimidin-4-yl]amino}piperidin-1-yl)-2-oxoethanol], for which the IC50 worked out at 1 nM at JAK2, 1 nM against JAK3 and 2 nM at JAK1.
